Test results: ChEMBL document CHEMBL5233262, “Anti-inflammatory activity of naturally occuring diarylheptanoids - A review” (Bioorg Med Chem, 2021)
Values after ≈ are worked out from the molar mass of the structure shown.

Key:
RAW264.7 [1] = assay: Antiinflammatory activity in mouse RAW264.7 cells assessed as inhibition of LPS-induced NO production preincubated for 0.5 hrs followed by LPS stimulation and measured after 24 hrs by Griess reagent based analysis; type: functional, cell-based
[2] = Cytotoxicity against mouse RAW264.7 cells assessed as reduction in cell viability by MTT assay; type: toxicity, cell-based
BV-2 = assay: Antiinflammatory activity in mouse BV-2 cells assessed as inhibition of LPS-induced NO production at 10 uM preincubated for 1 hrs followed by LPS stimulation and measured after 24 hrs by Griess assay; type: functional; details: time 25 hrs
RAW264.7 [3] = assay: Antiinflammatory activity in mouse RAW264.7 cells assessed as inhibition of LPS-induced NO production at 3 uM preincubated for 2 hrs followed by LPS stimulation and measured after 24 hrs by Griess method; type: functional; details: time 26 hrs
RAW264.7 [4] = assay: Antiinflammatory activity in mouse RAW264.7 cells assessed as inhibition of LPS-induced NO production at 10 uM preincubated for 2 hrs followed by LPS stimulation and measured after 24 hrs by Griess method; type: functional; details: time 26 hrs
RAW264.7 [5] = assay: Antiinflammatory activity in mouse RAW264.7 cells assessed as inhibition of LPS-induced NO production at 30 uM preincubated for 2 hrs followed by LPS stimulation and measured after 24 hrs by Griess method; type: functional; details: time 26 hrs
RAW264.7 [6] = assay: Antiinflammatory activity in mouse RAW264.7 cells assessed as inhibition of LPS-induced NO production at 100 uM preincubated for 2 hrs followed by LPS stimulation and measured after 24 hrs by Griess method; type: functional; details: time 26 hrs
RAW264.7 [7] = assay: Antiinflammatory activity in mouse RAW264.7 cells assessed as inhibition of LPS-induced TNFalpha production at 3 uM preincubated for 2 hrs followed by LPS stimulation and measured after 24 hrs by ELISA; type: functional; details: time 26 hrs
RAW264.7 [8] = assay: Antiinflammatory activity in mouse RAW264.7 cells assessed as inhibition of LPS-induced TNFalpha production at 10 uM preincubated for 2 hrs followed by LPS stimulation and measured after 24 hrs by ELISA; type: functional; details: time 26 hrs
RAW264.7 [9] = assay: Antiinflammatory activity in mouse RAW264.7 cells assessed as inhibition of LPS-induced TNFalpha production at 30 uM preincubated for 2 hrs followed by LPS stimulation and measured after 24 hrs by ELISA; type: functional; details: time 26 hrs
RAW264.7 [10] = assay: Antiinflammatory activity in mouse RAW264.7 cells assessed as inhibition of LPS-induced TNFalpha production at 100 uM preincubated for 2 hrs followed by LPS stimulation and measured after 24 hrs by ELISA; type: functional; details: time 26 hrs
RAW264.7 [11] = assay: Antiinflammatory activity in mouse RAW264.7 cells assessed as inhibition of LPS-induced IL-6 production at 3 uM preincubated for 2 hrs followed by LPS stimulation and measured after 24 hrs by ELISA; type: functional; details: time 26 hrs
RAW264.7 [12] = assay: Antiinflammatory activity in mouse RAW264.7 cells assessed as inhibition of LPS-induced IL-6 production at 10 uM preincubated for 2 hrs followed by LPS stimulation and measured after 24 hrs by ELISA; type: functional; details: time 26 hrs
RAW264.7 [13] = assay: Antiinflammatory activity in mouse RAW264.7 cells assessed as inhibition of LPS-induced IL-6 production at 30 uM preincubated for 2 hrs followed by LPS stimulation and measured after 24 hrs by ELISA; type: functional; details: time 26 hrs
RAW264.7 [14] = assay: Antiinflammatory activity in mouse RAW264.7 cells assessed as inhibition of LPS-induced IL-6 production at 100 uM preincubated for 2 hrs followed by LPS stimulation and measured after 24 hrs by ELISA; type: functional; details: time 26 hrs
Rattus norvegicus [15] = assay: Antiinflammatory activity in rat model of carrageenan-induced hind paw edema assessed as reduction in paw thickness at 100 mg/kg,ip 30mins before carrageenin exposure and measured after 3 hrs; type: functional; set-up: scale not given: the % may be the effect or the level left
Rattus norvegicus [16] = assay: Antiinflammatory activity in rat model of ethyl phenylpropiolate-induced ear edema assessed as reduction in ear thickness administered topically and measured after 30 mins; type: functional; details: 0.5 h
RAW264.7 [17] = assay: Antiinflammatory activity in mouse RAW264.7 cells assessed as inhibition of KLA-induced TNFalpha expression at 0.06 mg/ml and measured after 24 hrs by ELISA; type: functional
RAW264.7 [18] = assay: Antiinflammatory activity against mouse RAW264.7 cells assessed as inhibition of IFN-gamma and LPS-induced COX2 production preincubated for 2 hrs followed by IFN-gamma and LPS stimulation and measured after 16 hrs by spectrophotometric analysis; type: functional, cell-based
Mus musculus [19] = assay: Antiinflammatory activity in ICR mouse model of TPA-induced ear edema assessed as inhibition of ear inflammation at 1 mg,TOP for 30 mins followed by TPA addition and measured after 6 hrs; type: functional; details: time 390 min, 6.5 h
Zingiber officinale = assay: Inhibition of prostaglandin biosynthesis in ginger; type: functional, organism-based
Mus musculus [20] = assay: Antiinflammatory activity in TPA-induced ear edema ICR mouse model assessed as inhibition of ear inflammation at 1 ug, TOP for 30 mins followed by TPA addition and measured after 6 hrs; type: functional; details: dose 1 µg, time 390 min, 6.5 h
RAW264.7 [21] = assay: Antiinflammatory activity in mouse RAW264.7 cells assessed as inhibition of LPS-induced NO production; type: functional, cell-based
RAW264.7 [22] = assay: Antiinflammatory activity in mouse RAW264.7 cells assessed as inhibition of LPS-induced NO production for 24 hrs by Griess assay; type: functional, cell-based; details: RAW264.7, 24 h
Rattus norvegicus [23] = assay: Antiinflammatory activity in rat model of carrageenan-induced paw edema assessed as reduction in paw thickness at 10 mg/kg,ip and measured after 4 hrs; type: functional; set-up: scale not given: the % may be the effect or the level left
[24] = Antioxidant activity assessed as nitroblue tetrazolium superoxide radical scavenging activity by spectrophotometric analysis; type: functional
[25] = Antioxidant activity assessed as nitroblue tetrazolium superoxide radical scavenging activity incubated for 10 mins by spectrophotometric analysis; type: functional
J774.1 [26] = assay: Antiinflammatory activity in mouse J774.1 cells assessed as inhibition of LPS-induced NO production incubated for 48 hrs by Griess reagent based analysis; type: functional, cell-based; details: Mus musculus, J774.1, 48 h
J774.1 [27] = assay: Antiinflammatory activity in mouse J774.1 cells assessed as inhibition of LPS-induced NO production at 100 microg/ml; type: functional
J774.1 [28] = assay: Cytotoxicity in mouse J774.1 cells assessed as reduction in cell viability at 100 microg/ml; type: toxicity, cell-based; details: at 100 µg/mL
Rattus norvegicus [29] = assay: Antiinflammatory activity in Wistar rat model of carrageenan-induced paw edema assessed as reduction in paw thickness at 10 mg/kg,po and measured after 5 hrs; type: functional; set-up: scale not given: the % may be the effect or the level left

`O=C(/C=C/C=C/c1ccc(O)c(O)c1)CCc1ccc(O)c(O)c1` showed an IC50 (RAW264.7 [1]) of 8.6 µM and an IC50 [2] of 36.4 µM.

Work on `COC(=O)[C@@H](N)CCCNC(=N)N[N+](=O)[O-]` [L-NAME] yielded an inhibition at 10 µM (BV-2) of 70.5%.

Work on `COc1cc(CC[C@H](O)C[C@H](O)[C@@H](O)Cc2ccc(O)cc2)ccc1O` yielded an inhibition at 3 µM (RAW264.7 [3]) of 43%, an inhibition at 10 µM (RAW264.7 [4]) of 43% and an inhibition at 30 µM (RAW264.7 [5]) of 43%. It also gave an inhibition at 100 µM (RAW264.7 [6]) of 43%, an inhibition at 3 µM (RAW264.7 [7]) of 39% and an inhibition at 10 µM (RAW264.7 [8]) of 39%. It also gave an inhibition at 30 µM (RAW264.7 [9]) of 39%, an inhibition at 100 µM (RAW264.7 [10]) of 39% and an inhibition at 3 µM (RAW264.7 [11]) of 57%. The inhibition at 10 µM (RAW264.7 [12]) was 57%, the inhibition at 30 µM (RAW264.7 [13]) was 57% and the inhibition at 100 µM (RAW264.7 [14]) was 57%.

For `O=C(/C=C/C=C/c1ccccc1)CCc1ccccc1`, the Activity (Rattus norvegicus [15]) was 44% and the ID50 (Rattus norvegicus [16]) was 63 µg.

Compound `O=C(CCc1ccccc1)C[C@@H](O)/C=C/c1ccccc1` has an inhibition at 60 µg/mL (RAW264.7 [17]) of 37%.

In the case of `CC(=O)Oc1ccccc1C(=O)O` [ASPIRIN], the Activity (Rattus norvegicus [15]) is reported as 80%.

In the case of `COc1ccc2c(c1)c(CC(=O)O)c(C)n2C(=O)c1ccc(Cl)cc1` [INDOMETHACIN], the IC50 (RAW264.7 [18]) is reported as 26.2 µg/mL (≈ 73.2 µM), the ID50 (Mus musculus [19]) is reported as 0.3 mg and the IC50 (Zingiber officinale) is reported as 4.9 µM. The ID50 (Mus musculus [20]) was 0.9 µmol, the IC50 (RAW264.7 [21]) was 26.3 µM and the IC50 (RAW264.7 [22]) was 32.3 µM. For the same compound, the Activity (Rattus norvegicus [23]) was 55.2%.

Compound `COc1cc(CC[C@H](O)C[C@H](O)[C@@H](O)Cc2ccc(O)c(OC)c2)ccc1O` has an inhibition at 3 µM (RAW264.7 [3]) of 39%, an inhibition at 10 µM (RAW264.7 [4]) of 39% and an inhibition at 30 µM (RAW264.7 [5]) of 39%. For the same compound, the inhibition at 100 µM (RAW264.7 [6]) was 39%, the inhibition at 3 µM (RAW264.7 [7]) was 34% and the inhibition at 10 µM (RAW264.7 [8]) was 34%. It also gave an inhibition at 30 µM (RAW264.7 [9]) of 34%, an inhibition at 100 µM (RAW264.7 [10]) of 34% and an inhibition at 3 µM (RAW264.7 [11]) of 43%. For the same compound, the inhibition at 10 µM (RAW264.7 [12]) was 43%, the inhibition at 30 µM (RAW264.7 [13]) was 43% and the inhibition at 100 µM (RAW264.7 [14]) was 43%.

`COc1cc([C@H]2C[C@H](O)C[C@@H]([C@@H](O)Cc3ccc(O)cc3)O2)ccc1O` showed an inhibition at 3 µM (RAW264.7 [3]) of 34%, an inhibition at 10 µM (RAW264.7 [4]) of 34% and an inhibition at 30 µM (RAW264.7 [5]) of 34%. For the same compound, the inhibition at 100 µM (RAW264.7 [6]) was 34%, the inhibition at 3 µM (RAW264.7 [7]) was 41% and the inhibition at 10 µM (RAW264.7 [8]) was 41%. It also gave an inhibition at 30 µM (RAW264.7 [9]) of 41%, an inhibition at 100 µM (RAW264.7 [10]) of 41% and an inhibition at 3 µM (RAW264.7 [11]) of 40%. It also gave an inhibition at 10 µM (RAW264.7 [12]) of 40%, an inhibition at 30 µM (RAW264.7 [13]) of 40% and an inhibition at 100 µM (RAW264.7 [14]) of 40%.

With `Oc1ccc(CC[C@@H](O)C[C@@H](O)CCc2ccc(O)cc2)cc1` the inhibition at 10 µM (BV-2) was 65.2%.

With `Oc1ccc(CC[C@@H](O)C[C@H](O)CCc2ccc(O)cc2)cc1` [(+)-HANNOKINOL] the inhibition at 10 µM (BV-2) was 51.3%.

With `Oc1ncnc2[nH]ncc12` [ALLOPURINOL] the IC50 [24] was 8 µM and the IC50 [25] was 3.9 µM.

Work on `O=C(CCc1ccccc1)C[C@@H](O)CCc1ccccc1` yielded an inhibition at 60 µg/mL (RAW264.7 [17]) of 35%.

Compound `O=C(/C=C/c1ccc(O)c(O)c1)CC/C=C/c1ccc(O)c(O)c1` has an IC50 (RAW264.7 [1]) of 2.9 µM and an IC50 [2] of 9 µM.

With `COc1cc(CC[C@@H](C[C@H](O)[C@@H](O)Cc2ccc(O)cc2)O[C@@H]2OC[C@@H](O)[C@H](O)[C@H]2O)ccc1O` the inhibition at 3 µM (RAW264.7 [3]) was 39%, the inhibition at 10 µM (RAW264.7 [4]) was 39% and the inhibition at 30 µM (RAW264.7 [5]) was 39%. For the same compound, the inhibition at 100 µM (RAW264.7 [6]) was 39%, the inhibition at 3 µM (RAW264.7 [7]) was 36% and the inhibition at 10 µM (RAW264.7 [8]) was 36%. For the same compound, the inhibition at 30 µM (RAW264.7 [9]) was 36%, the inhibition at 100 µM (RAW264.7 [10]) was 36% and the inhibition at 3 µM (RAW264.7 [11]) was 43%. It also gave an inhibition at 10 µM (RAW264.7 [12]) of 43%, an inhibition at 30 µM (RAW264.7 [13]) of 43% and an inhibition at 100 µM (RAW264.7 [14]) of 43%.

For `COc1cc(O)c([C@H](/C=C/C[C@@H](O)CCc2ccc(O)cc2)c2ccc(O)cc2)c(O)c1C(=O)/C=C/c1ccc(O)cc1`, the IC50 (J774.1 [26]) was 84 µM, the inhibition at 100 µg/mL (J774.1 [27]) was 90% and the Activity (J774.1 [28]) was 85%.

Compound `O=C(CCc1ccccc1)C[C@H](O)CCc1ccccc1` has an ID50 (Mus musculus [20]) of 2.1 µmol and an Activity (Rattus norvegicus [29]) of 6.9%.

In the case of `COc1cc(O)c([C@@H](/C=C/C[C@@H](O)CCc2ccc(O)cc2)c2ccc(O)cc2)c(O)c1C(=O)/C=C/c1ccc(O)cc1`, the IC50 (J774.1 [26]) is reported as 39 µM, the inhibition at 100 µg/mL (J774.1 [27]) is reported as 90% and the Activity (J774.1 [28]) is reported as 85%.
